# From patent US20050131041A1, “Azole derivatives as antifungal agents” (priority 2002, published 2005)
# Read-outs that look alike come from different tables or passages of the source.
# What was measured:
# [1] = test system: Candida tropicalis 750; assay: MIC determination (NCCLS M27A/M38P broth dilution); type: cell-based
# [2] = test system: Cryptococcus neoformans M 106; assay: MIC determination (NCCLS M27A/M38P broth dilution); type: cell-based
# [3] = test system: Aspergillus fumigatus 1008; assay: MIC determination (NCCLS M27A/M38P broth dilution); type: cell-based
# [4] = test system: Paecilomyces variotti 22319(QC); assay: MIC determination (NCCLS M27A/M38P broth dilution); type: cell-based
# [5] = test system: Aspergillus fumigatus Si-I; assay: MIC determination (NCCLS M27A/M38P broth dilution); type: cell-based
# [6] = test system: Candida albicans Y-01-19; assay: MIC determination (NCCLS M27A/M38P broth dilution); type: cell-based
# [7] = test system: Candida parapsilosis 22019 (QC); assay: MIC determination (NCCLS M27A/M38P broth dilution); type: cell-based
# [8] = test system: Candida krusei 6258 (QC); assay: MIC determination (NCCLS M27A/M38P broth dilution); type: cell-based
# [9] = test system: Candida glabrata 90030; assay: MIC determination (NCCLS M27A/M38P broth dilution); type: cell-based
# [10] = test system: Candida albicans 1122; assay: MIC determination (NCCLS M27A/M38P broth dilution); type: cell-based
# [11] = test system: Candida krusei 766.1; assay: MIC determination (NCCLS M27A/M38P broth dilution); type: cell-based
# [12] = test system: ergosterol P450DM; conditions: cited from earlier work
# [13] = target: ergosterol P450DM (Candida albicans, UniProt P10613); conditions: cited from earlier work
# [14] = test system: Cryptococcus neoformans; conditions: cited from earlier work
# [15] = Aspergillus fumigatus 1008, RPMI 1640, MOPS pH 7
# [16] = Paecilomyces variotti 22319(QC), RPMI 1640, MOPS pH 7
# [17] = Aspergillus fumigatus Si-I, RPMI 1640, MOPS pH 7
# [18] = Candida krusei 6258 (QC), RPMI 1640, MOPS pH 7
# [19] = RPMI 1640, MOPS pH 7, read-out: MIC
# [20] = M106, RPMI 1640, MOPS pH 7, read-out: MIC
# [21] = Paecilomyces variotti 22319(QC), RPMI 1640, MOPS pH 7, read-out: MIC
# [22] = Y0119, RPMI 1640, MOPS pH 7, read-out: MIC
# [23] = Pichia kudriavzevii, Candida krusei 6258 (QC), RPMI 1640, MOPS pH 7, read-out: MIC
# [24] = Nakaseomyces glabratus, RPMI 1640, MOPS pH 7, read-out: MIC
# [25] = Pichia kudriavzevii, RPMI 1640, MOPS pH 7, read-out: MIC
# [26] = Aspergillus fumigatus 1008, RPMI 1640, MOPS pH 7, read-out: MIC
# Chain of ergosterol P450DM (Candida albicans, UniProt P10613) (P10613 whole entry): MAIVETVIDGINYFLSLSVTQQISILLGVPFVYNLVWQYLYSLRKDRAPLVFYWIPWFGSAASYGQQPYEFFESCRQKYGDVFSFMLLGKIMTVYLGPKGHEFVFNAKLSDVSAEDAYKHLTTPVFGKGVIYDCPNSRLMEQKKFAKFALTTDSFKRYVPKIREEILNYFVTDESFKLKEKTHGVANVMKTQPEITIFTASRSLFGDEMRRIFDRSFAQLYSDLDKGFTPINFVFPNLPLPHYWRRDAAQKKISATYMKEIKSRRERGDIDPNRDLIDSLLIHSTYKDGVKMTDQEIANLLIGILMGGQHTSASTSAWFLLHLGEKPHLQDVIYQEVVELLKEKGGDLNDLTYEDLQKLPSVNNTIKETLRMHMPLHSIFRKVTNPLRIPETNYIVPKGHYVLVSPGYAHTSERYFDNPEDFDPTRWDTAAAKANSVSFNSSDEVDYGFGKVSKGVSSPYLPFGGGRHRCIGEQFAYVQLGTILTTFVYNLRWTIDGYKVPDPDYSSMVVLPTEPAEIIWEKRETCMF
"MIC ([1]; RPMI 1640, MOPS pH 7)","MIC ([2]; RPMI 1640, MOPS pH 7)","MIC [3, 15]","MIC [4, 16]","MIC [5, 17]","MIC ([6]; RPMI 1640, MOPS pH 7)","MIC ([7]; RPMI 1640, MOPS pH 7)","MIC [8, 18]","MIC ([9]; RPMI 1640, MOPS pH 7)","MIC ([10]; RPMI 1640, MOPS pH 7)","MIC ([11]; RPMI 1640, MOPS pH 7)",SMILES,"MIC [1, 19]","MIC [2, 20]","MIC [6, 22]","MIC [7, 19]","MIC [9, 24]","MIC [10, 19]","MIC [11, 25]",further results
0.125 µg/mL,0.06 µg/mL,0.25 µg/mL,0.25 µg/mL,0.5 µg/mL,0.25 µg/mL,0.125 µg/mL,0.25 µg/mL,0.5 µg/mL,0.25 µg/mL,0.25 µg/mL,"C[C@@H]1[C@H](O)[C@@H](C)/C=C/C=C/C=C/C=C/C=C/C=C/C=C/[C@H](O[C@@H]2O[C@H](C)[C@@H](O)[C@H](N)[C@@H]2O)C[C@@H]2O[C@](O)(C[C@@H](O)C[C@@H](O)[C@H](O)CC[C@@H](O)C[C@@H](O)CC(=O)O[C@H]1C)C[C@H](O)[C@H]2C(=O)O [AMB, AMPHOTERICIN B]",,,,,,,,
,,,,,,,,,,,"OC(Cn1cncn1)(Cn1cncn1)c1ccc(F)cc1F [FLU, FLUCONAZOLE]",2 µg/mL,4 µg/mL,16 µg/mL,2 µg/mL,16 µg/mL,0.5 µg/mL,64 µg/mL,"MIC ([3]; Aspergillus fumigatus, 1008, pH 7): > 128 µg/mL; MIC [4, 21]: 2 µg/mL; MIC ([5]; Aspergillus fumigatus, pH 7): > 128 µg/mL; MIC [8, 23]: 32 µg/mL"
,,,,,,,,,,,"CCC(C)n1ncn(-c2ccc(N3CCN(c4ccc(OCC5COC(Cn6cncn6)(c6ccc(Cl)cc6Cl)O5)cc4)CC3)cc2)c1=O (centres unmarked) [ITRA, ITRACONAZOLE]",0.004 µg/mL,0.03 µg/mL,0.25 µg/mL,0.03 µg/mL,0.5 µg/mL,0.016 µg/mL,0.25 µg/mL,"MIC [3, 26]: 0.25 µg/mL; MIC ([4]; Paecilomyces, pH 7): 0.125 µg/mL; MIC ([5]; Aspergillus fumigatus, pH 7): 0.125 µg/mL; MIC ([8]; Pichia kudriavzevii, pH 7): 0.125 µg/mL"
,,,,,,,,,,,"C[C@@H](c1ncncc1F)[C@](O)(Cn1cncn1)c1ccc(F)cc1F [VORI, VORICONAZOLE]",0.016 µg/mL,0.06 µg/mL,0.5 µg/mL,0.03 µg/mL,1 µg/mL,0.16 µg/mL,1 µg/mL,"greater inhibition of ergosterol P450DM compared to fluconazole [12]: 160 fold; MIC [3, 26]: 0.25 µg/mL; MIC [4, 21]: 0.06 µg/mL; greater inhibition of ergosterol P450DM compared to fluconazole [13]: 1.6 fold; MIC ([5]; Aspergillus fumigatus Si-I, RPMI 1640, MOPS pH 7, read-out: MIC): 0.25 µg/mL; MIC [8, 23]: 0.25 µg/mL"
,,,,,,,,,,,"CC[C@H](C)C[C@H](C)CCCCCCCCC(=O)N[C@H]1C[C@@H](O)[C@@H](NCCN)NC(=O)[C@@H]2[C@@H](O)CCN2C(=O)[C@H]([C@H](O)CCN)NC(=O)[C@H]([C@H](O)[C@@H](O)c2ccc(O)cc2)NC(=O)[C@@H]2C[C@@H](O)CN2C(=O)[C@H]([C@@H](C)O)NC1=O [caspofungin, Caspofungin]",,,,,,,,activity against Cryptococcus neoformans [14]: not active
0.004 µg/mL,0.03 µg/mL,0.25 µg/mL,0.016 µg/mL,0.25 µg/mL,0.25 µg/mL,<0.00025 µg/mL,0.25 µg/mL,0.06 µg/mL,0.06 µg/mL,0.25 µg/mL,"C[C@@H](n1ccn(-c2ccc(-n3cnnn3)cc2)c1=S)[C@](O)(Cn1cncn1)c1ccc(F)cc1F [compound 4, 1-[(1R,2R)-2-(2,4-Difluorophenyl)-2-hydroxy-1-methyl-3-(1H-1,2,4-triazol-1-yl)propyl]-3-[4-(1H-1-tetrazolyl)phenyl]-2-(1H,3H)-thioimidazolone]",,,,,,,,
<0.00025 µg/mL,<0.00025 µg/mL,0.125 µg/mL,Long trailing effect,0.016 µg/mL,0.5 µg/mL,<0.00025 µg/mL,0.06 µg/mL,1 µg/mL,<0.00025 µg/mL,0.5 µg/mL,"C[C@@H](n1ccn(-c2ccc(-n3ncnn3)cc2)c1=S)[C@](O)(Cn1cncn1)c1ccc(F)cc1F [compound 5, 1-[(1R,2R)-2-(2,4-Difluorophenyl)-2-hydroxy-1-methyl-3-(1H-1,2,4-triazol-1-yl)propyl]-3-[4-(2H-2-tetrazolyl)phenyl]-2-(1H,3H)-thioimidazolone]",,,,,,,,
<0.00025 µg/mL,<0.00025 µg/mL,0.125 µg/mL,Long trailing effect,0.016 µg/mL,0.5 µg/mL,<0.00025 µg/mL,0.125 µg/mL,2 µg/mL,<0.00025 µg/mL,0.5 µg/mL,"C[C@@H](n1ccn(-c2ccc(OCC(F)(F)C(F)F)cc2)c1=S)[C@](O)(Cn1cncn1)c1ccc(F)cc1F [compound 6, 1-[(1R,2R)-2-(2,4-Difluorophenyl)-2-hydroxy-1-methyl-3-(1H-1,2,4-triazol-1-yl)propyl]-3-[4-(2,2,3,3-tetrafluoropropoxy)phenyl]-2-(1H,3H)-thioimidazolone]",,,,,,,,
